We go through 16 compounds from PubChem BioAssay (NCI).

Structures are written as SMILES.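 Exposure lasted 48 hours, with cells grown in 96-well plates and compounds tested at five concentrations. GI50: concentration for 50% inhibition of growth. TGI denotes the concentration required for complete inhibition of growth.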

Test in all cases: NCI-60 cell line screen, 48 h
Experiment [1] deals with T-47D breast.
Experiment [2] relates to OVCAR-8 ovarian.
Experiment [3] relates to TK-10 renal.
Experiment [4] has as its system OVCAR-4 ovarian.
For experiment [5], the system named is SR leukemia.
In experiment [6] the test system is HCT-15 colon.
Experiment [7] deals with KM12 colon.
In experiment [8] the test system is LOX IMVI melanoma.
Experiment [9] has as its system SF-539 CNS.

In the case of `CC1(C)C=[N+]([O-])C(C)(C)N1O`, the TGI in experiment [1], in experiment [2], in experiment [3], in experiment [4], in [5] and in experiment [6] was more than 10 µM throughout. For the same compound, in [7], the TGI is more than 10 µM.

Take `COc1ccc(NC(=O)CC(=O)N2N=C(N(c3ccccc3)c3ccccc3)CC2c2ccccc2)cc1` (configuration not stated): the TGI in [1], in [2], in experiment [3], in experiment [4], in experiment [8] and in [9] was more than 100 µM each time. The TGI in experiment [6] and in experiment [7] was more than 100 µM throughout.

For `CCOC(=O)CCC(NC(=O)OCc1ccccc1)C(=O)NC(CCC(=O)OCC)C(=O)NC(CCC(=O)OCC)C(=O)NNC(=O)OC(C)(C)C` (configuration not stated), the TGI in experiment [2], in experiment [3], in experiment [5] and in [6] was more than 100 µM in each case.

Consider `CCOC(=O)c1c(N)sc2c1C(C(=O)OCC)CCC2` (configuration not stated), for which the TGI in experiment [1], in experiment [2], in [3], in experiment [5], in [6] and in experiment [7] was more than 100 µM each time.

In the case of `NNC(=O)Cn1ccnn1`, the TGI in [2], in experiment [3], in experiment [8], in experiment [5], in [6] and in experiment [7] was more than 100 µM in each case.

On to `C[C@]12CC[C@H]3[C@@H](CCC4=C(Br)C(=O)C=C[C@@]43O)[C@@H]1CCC2=O`, for which the TGI was 80.2 µM in experiment [2]; 94.2 µM in experiment [3]; more than 100 µM in [4]; more than 100 µM in [8]; 58.8 µM in experiment [5]; more than 100 µM in experiment [9]. Also, the TGI in experiment [6] is 52.7 µM; in experiment [7], more than 100 µM.

Turning to `COc1cc(C)cc2c(-c3c(O)cc(O)c4c3C[C@H](C)N[C@H]4C)cc(-c3cc(-c4c(O)cc(O)c5c4C[C@H](C)N[C@H]5C)c4cc(C)cc(OC)c4c3O)c(O)c12`, the TGI in experiment [1], in experiment [2], in [3], in experiment [4], in experiment [5] and in experiment [9] was more than 100 µM throughout. Further, the TGI in experiment [6] and in [7] was more than 100 µM each time.

`COc1cc2oc(-c3ccc4c(c3)OCO4)c(OC)c(=O)c2c(O)c1OC`: the TGI in experiment [1], in [2], in experiment [3], in [4], in [8] and in experiment [9] was more than 50 µM in each case. Further, the TGI in experiment [6] and in experiment [7] was more than 50 µM in each case.

`COC(=O)c1cc(C)ccc1C1CN=NC12Cc1c(C)cc(C)cc1C2=O` (configuration not stated): the TGI in experiment [1] was more than 100 µM; in [2], more than 100 µM; in experiment [3], 82.5 µM; in [4], 80 µM; in [8], 30.3 µM; in experiment [9], 32.7 µM. The values for the TGI in [6] and in experiment [7] were 69.1 µM and 39.1 µM, respectively.

Regarding `Cc1c(C#N)c(=N)oc2ccccc12`, the TGI in [1], in [2], in experiment [3], in experiment [4], in experiment [8] and in experiment [9] was more than 100 µM each time. For the same compound, the TGI in experiment [6] and in [7] was more than 100 µM in each case.

Consider `O=C(O)CCSC1=NCCN1`, for which the TGI in experiment [1], in experiment [2], in experiment [3], in experiment [4], in experiment [8] and in experiment [5] was more than 100 µM in each case. For the same compound, the TGI in experiment [6] and in experiment [7] was more than 100 µM each time.

Turning to `C[PH+](c1nc2ccccc2nc1[PH+](C)C(C)(C)C)C(C)(C)C.C[PH+](c1nc2ccccc2nc1[PH+](C)C(C)(C)C)C(C)(C)C.[Au+].[Cl-]` (configuration not stated), the GI50 was 35.8 nM in [2]; 43.1 nM in experiment [3]; 34.9 nM in experiment [4]; 39.6 nM in [8]; 53 nM in experiment [9]; 31.4 nM in [7]. Moreover, the TGI in [2] amounted to 1.88 µM; in [3] it was 1.13 µM; in experiment [4] it was 0.77 µM; in [8] it was 0.155 µM; in [9], 1.14 µM; in [7] it was 0.131 µM.

For `NC1c2c(Cl)sc(Cl)c2C(=O)C1O` (configuration not stated), the TGI in [1] is more than 100 µM; in experiment [2], 51.8 µM; in experiment [3] it was more than 100 µM; in experiment [4], 50.4 µM; in [8], 47.3 µM; in experiment [9], more than 100 µM. In addition, the results for the TGI in experiment [6] and in [7] were 30.1 µM and more than 100 µM, respectively.

For the compound `CC1CN=C(c2ccc(CN3CCC(C4CCN(Cc5ccc(C6=NCC(C)N6)cc5)CC4)CC3)cc2)N1` (configuration not stated), the TGI in experiment [1] is 49.4 µM; in experiment [2] it was more than 100 µM; in experiment [3], 57.5 µM; in experiment [4], 38.8 µM; in experiment [8] it was 56 µM; in experiment [9] it was 37.7 µM. Moreover, the TGI in experiment [6] was 94.7 µM; in experiment [7] it was 31.8 µM.

On to `N#C/C(=C1/c2cc([N+](=O)[O-])ccc2-c2c1cc([N+](=O)[O-])cc2[N+](=O)[O-])N1CCCCC1`, for which the TGI was more than 100 µM in experiment [1]; more than 100 µM in experiment [2]; more than 100 µM in [3]; 69.7 µM in experiment [4]; 4.44 µM in [5]; more than 100 µM in experiment [6]. This compound displayed a TGI in [7] of more than 100 µM.

On to `Cc1ccc(/C=C2/NC(=S)SC2=O)cc1`, for which the TGI was more than 100 µM in experiment [1]; more than 100 µM in experiment [2]; 53.9 µM in [3]; more than 100 µM in [4]; more than 100 µM in experiment [8]; more than 100 µM in experiment [9]. In addition, the TGI was 85.6 µM in [6] and more than 100 µM in experiment [7].
